{"source": "ChEMBL document CHEMBL6134822", "about": "“Discovery of a potent and in vivo anti-inflammatory Efficacious, P2Y14R antagonist with a novel benzisoxazoles scaffold by DNA-encoded chemical library technology” (Eur J Med Chem, 2025)", "key": {"[1]": {"molecular_target": "T1, P2Y purinoceptor 14 (Homo sapiens, UniProt Q15391)", "T1 sequence (Q15391 whole entry)": "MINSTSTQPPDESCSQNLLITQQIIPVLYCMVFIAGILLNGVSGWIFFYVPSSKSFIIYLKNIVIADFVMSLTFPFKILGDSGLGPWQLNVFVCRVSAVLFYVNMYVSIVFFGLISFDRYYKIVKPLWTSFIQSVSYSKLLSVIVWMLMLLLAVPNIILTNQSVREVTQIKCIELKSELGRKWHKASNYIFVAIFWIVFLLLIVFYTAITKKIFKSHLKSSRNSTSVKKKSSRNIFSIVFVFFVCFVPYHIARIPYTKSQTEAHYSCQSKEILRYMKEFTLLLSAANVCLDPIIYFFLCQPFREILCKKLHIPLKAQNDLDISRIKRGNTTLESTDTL", "assay": "Binding affinity to CM5 chip-immobilized P2Y14 receptor (unknown origin) assessed as equilibrium dissociation constant by SPR analysis"}, "[2]": {"test_system": "Mus musculus", "assay": "Anti-inflammatory activity in C57BL/6 mouse model of LPS-induced ALI assessed as reduction in lung tissue damage at 2 to 6 mg/kg qd treated for 7 days by H and E staining based analysis", "type": "functional, organism-based", "settings": "dose 2-6 mg/kg, time 7.0 day"}, "[3]": {"assay": "Stability in simulated intestinal fluid assessed as half life", "type": "physicochemical"}, "[4]": {"assay": "Microsomal stability in human liver microsomes assessed as half life", "type": "ADME, Microsome"}, "[5]": {"assay": "Toxicity in C57BL/6 mouse model of LPS-induced ALI assessed as average body weight change at 2 to 6 mg/kg qd treated for 7 days", "type": "organism-based", "settings": "in vivo, 168 h, dose 2-6 mg/kg, time 7 day"}, "[6]": {"test_system": "Mus musculus", "assay": "Anti-inflammatory activity in C57BL/6 mouse model of LPS-induced ALI assessed as reduction in IL-1beta level in BALF at 2 to 6 mg/kg qd treated for 7 days by ELISA", "type": "functional, organism-based", "settings": "dose 2-6 mg/kg, time 7.0 day"}, "[7]": {"assay": "Stability in simulated gastric fluid assessed as half life", "type": "physicochemical"}, "[8]": {"test_system": "Mus musculus", "assay": "Anti-inflammatory activity in C57BL/6 mouse model of LPS-induced ALI assessed as reduction in MPO level in lung tissue at 2 to 6 mg/kg qd treated for 7 days", "type": "functional, organism-based", "settings": "dose 2-6 mg/kg, time 7.0 day"}, "[9]": {"test_system": "Mus musculus", "assay": "Anti-inflammatory activity in C57BL/6 mouse model of LPS-induced ALI assessed as reduction in IL-6 level in BALF at 2 to 6 mg/kg qd treated for 7 days by ELISA", "type": "functional, organism-based", "settings": "dose 2-6 mg/kg, time 7.0 day"}, "[10]": {"test_system": "Mus musculus", "assay": "Anti-inflammatory activity in C57BL/6 mouse model of LPS-induced ALI assessed as reduction in TNF-alpha level in BALF at 2 to 6 mg/kg qd treated for 7 days by ELISA", "type": "functional, organism-based", "settings": "dose 2-6 mg/kg, time 7.0 day"}, "[11]": {"assay": "Microsomal stability in human liver microsomes assessed as intrinsic clearance", "type": "ADME, Microsome", "settings": "read-out: CLH"}, "[12]": {"molecular_target": "T1, P2Y purinoceptor 14", "assay": "Antagonist activity at P2Y14 receptor (unknown origin) stably expressed in HEK293 cells assessed as inhibition of forskolin-induced intracellular cAMP production incubated for 30 mins in presence of UDPG by Camp-Glo kit assay", "type": "functional, cell-based"}}, "note": "The source made the active and inactive calls. The rule behind the calls is not given here.", "data": [{"smiles": "CNC(=O)C1CN(C(=O)c2onc3ccccc23)CC12CCN(C(=O)c1noc3ccccc13)CC2", "note": "(configuration not stated)", "values": [{"measurement": "Kd", "setting": "[1]", "value": 7.26, "unit": "µM"}, {"measurement": "Activity", "setting": "[2]", "value": "Active"}, {"measurement": "half-life", "setting": "[3]", "value": "> 5", "unit": "h"}, {"measurement": "half-life", "setting": "[4]", "value": 5.9, "unit": "h"}, {"measurement": "Activity", "setting": "[5]", "value": "Non-toxic"}, {"measurement": "Activity", "setting": "[6]", "value": "Active"}, {"measurement": "half-life", "setting": "[7]", "value": "> 50", "unit": "h"}, {"measurement": "Activity", "setting": "[8]", "value": "Active"}, {"measurement": "Activity", "setting": "[9]", "value": "Active"}, {"measurement": "Activity", "setting": "[10]", "value": "Active"}, {"measurement": "microsomal CLint", "setting": "[11]", "value": 25.6, "unit": "µL/min/mg"}, {"measurement": "IC50", "setting": "[12]", "value": 0.0236, "unit": "µM"}]}]}
